Assay: solvent given as SMILES

CC(=O)CC(=O)c1ccccc1
Conditions	solvation free energy, 298 K [kcal/mol]
in CCCCCC	-7.72
in CCCCCCC	-7.87
in CCCCCCCC	-7.76
in CCCCCCCCCC	-7.76

Cc1[nH]n(-c2ccccc2)c(=O)c1C(=O)c1ccccc1
Conditions	solvation free energy, 298 K [kcal/mol]
in O	-11.6

O=C=O
Conditions	solvation free energy, 298 K [kcal/mol]
in Brc1ccccc1	-0.35
in C1CCC2CCCCC2C1	-0.22
in C1CCCCC1	-0.32
in C1CCOC1	-1.12
in C1COCCO1	-1.16
in C=CCCCC	-0.56
in C=CCCCCCC	-0.45
in C=CCCCCCCCC	-0.35
in CC1COC(=O)O1	-0.75
in CC(C)(C)O	-0.41
in CC(C)=O	-1.1
in CC(C)CO	-0.37
in CC(C)O	-0.42
in CCC(C)=O	-0.98
in CCC(C)O	-0.33
in CCCCCC	-0.48
in CCCCCCC	-0.41
in CCCCCCCC	-0.35
in CCCCCCCCCC	-0.27
in CCCCCCCCCCCCCCCC	-0.12
in CCCCCCCCCCO	-0.13
in CCCCCCCCO	-0.22
in CCCCO	-0.4
in CCCCOCCO	-0.26
in CCCCOCCOCCO	-0.23
in CCCCOCCOCCOCCO	-0.48
in CCCO	-0.48
in CCO	-0.57
in CCOCCOCCO	-0.51
in CCOCCOCCOCC	-0.69
in CCc1ccccc1	-0.21
in CN1CCCC1=O	-0.82
in CN(C)C=O	-0.95
in CN(C)P(=O)(N(C)C)N(C)C	-0.9
in CO	-0.85
in COC(=O)CC#N	-0.67
in COC(C)=O	-1.13
in COCCO	-0.65
in COCCOC	-0.86
in COCCOCCO	-0.7
in COCCOCCOC	-0.84
in COCCOCCOCCO	-0.5
in COCCOCCOCCOC	-0.7
in COCCOCCOCCOCCOC	-0.77
in CS(C)=O	-0.69
in Cc1ccc(C)cc1	-0.45
in Cc1cccc(C)c1	-0.45
in Cc1ccccc1	-0.48
in Cc1ccccc1C	-0.43
in ClC(Cl)(Cl)Cl	-0.61
in ClC(Cl)Cl	-0.61
in ClCCCl	-0.78
in ClCCl	-0.68
in Clc1ccccc1	-0.5
in Nc1ccccc1	-0.44
in O	0.11
in O=C1CCCC1	-0.89
in O=C1CCCCC1	-0.79
in O=CN1CCOCC1	-0.71
in OCCCOCCCO	-0.25
in OCCO	-0.17
in OCCOCCO	-0.28
in OCc1ccccc1	-0.36
in c1ccccc1	-0.58

CCC(C)(C)C(=O)OC1CC(C)C=C2C=CC(C)C(CCC3CC(O)CC(=O)O3)C21 (stereo not drawn)
Conditions	solvation free energy, 298 K [kcal/mol]
in CC(=O)OC(C)C	-25
in CC(=O)OCC(C)C	-24.9
in CCC(C)O	-25.1
in CCC(C)OC(C)=O	-24.9
in CCCCCCCCO	-24.8
in CCCCCCO	-25
in CCCCCO	-25
in CCCCO	-25.1
in CCCCOC(C)=O	-25
in CCCO	-25.1
in CCCOC(C)=O	-25
in CCO	-25.1
in CCOC(C)=O	-25.1
in COC(C)=O	-25.1

CCCCN(CCCC)CCCC
Conditions	solvation free energy, 298 K [kcal/mol]
in O	-4.09

COC(=O)c1ccc([N+](=O)[O-])cc1
Conditions	solvation free energy, 298 K [kcal/mol]
in CN(C)C=O	-10.8
in O	-6.76

CCCCCCCCCCCCCCCCCCCCC
Conditions	solvation free energy, 298 K [kcal/mol]
in CC(=O)N(C)C	-14.3
in CC(C)(C)O	-12.9
in CN(C)C=O	-14.4
in O	4.71

CC(C)N
Conditions	solvation free energy, 298 K [kcal/mol]
in CCCCCC	-2.78

OCCOCCOCCO
Conditions	solvation free energy, 298 K [kcal/mol]
in CCCCCCC	-7.04

CCC(O)C(C)C (stereo not drawn)
Conditions	solvation free energy, 298 K [kcal/mol]
in CC(C)CC(C)(C)C	-4.53
in CCCCCCCC	-4.72
in CCCCCCCCCC	-4.67
in O	-3.88

CC(=O)c1c(C)[nH]n(-c2ccccc2)c1=O
Conditions	solvation free energy, 298 K [kcal/mol]
in O	-9.89

O=C(c1ccccc1)N(O)c1cccc(Cl)c1
Conditions	solvation free energy, 298 K [kcal/mol]
in O	-10.9

Sc1ccccc1
Conditions	solvation free energy, 298 K [kcal/mol]
in O	-2.55

C=CCC(C)(C)C
Conditions	solvation free energy, 298 K [kcal/mol]
in C=CCCCCCCCCCCCCCC	-3.59
in O	1.53

CC1CCC(C)(C)C1 (stereo not drawn)
Conditions	solvation free energy, 298 K [kcal/mol]
in O	2.47

CCCC=O
Conditions	solvation free energy, 298 K [kcal/mol]
in C1CCOC1	-4.42
in C=CCCCC	-3.65
in C=CCCCCCCCCCCCCCC	-3.15
in CC(C)CC(C)(C)C	-3.45
in CC(C)CCCC(C)CCCC(C)CCCCC(C)CCCC(C)CCCC(C)C	-3.09
in CCCCCCCC	-3.23
in CCCCCCCCCCCCCCCC	-3.18
in CCCCCCCCO	-4.64
in CCCCCO	-3.7
in CCOC(C)=O	-4.33
in CN1CCCC1=O	-4.16
in CO	-4.34
in NC=O	-3.52
in O	-3.12
in O=CN1CCOCC1	-3.94
in [2H]O[2H]	-3.11

O=C(O)c1cccc(Cl)c1
Conditions	solvation free energy, 298 K [kcal/mol]
in C1CCOC1	-11.2
in C1COCCO1	-10.9
in CC(C)CCO	-10.5
in CC(C)CO	-10.5
in CC(C)O	-10.7
in CC(C)OC(C)C	-10.1
in CCC(C)O	-10.6
in CCCCCCCCCCO	-10.3
in CCCCCCCCO	-10.4
in CCCCCCCO	-10.5
in CCCCCCO	-10.6
in CCCCCO	-10.6
in CCCCCOC(C)=O	-10.1
in CCCCO	-10.6
in CCCCOC(C)=O	-10.2
in CCCO	-10.7
in CCO	-10.7
in CCOC(C)=O	-10.4
in CCOCC	-10.5
in O	-7.03

CNCCc1ccc(OC)cc1
Conditions	solvation free energy, 298 K [kcal/mol]
in C=CCCCCCCC=C	-9.47
in O	-7.94

Clc1cc(-c2cc(Cl)c(Cl)c(Cl)c2Cl)c(Cl)c(Cl)c1Cl
Conditions	solvation free energy, 298 K [kcal/mol]
in CCCCCCCCO	-15.2
in O	-3.77

CCCC(=O)CCC
Conditions	solvation free energy, 298 K [kcal/mol]
in CCCCOCCCC	-5.6
in CO	-5.77
in O	-2.92

CC=O
Conditions	solvation free energy, 298 K [kcal/mol]
in CC(=O)N(C)C	-3.22
in CC(C)CCCC(C)CCCC(C)CCCCC(C)CCCC(C)CCCC(C)C	-2.26
in CCCCCCCCCCCCCCCC	-1.51
in CCCCCCCCO	-3.65
in CCCCN(C=O)CCCC	-2.78
in CCN1CCCC1=O	-3.05
in CCN(CC)C(C)=O	-3.06
in CCNC(C)=O	-2.73
in CN1CCCCC1=O	-3.04
in CNC(C)=O	-2.85
in CO	-4.83
in O	-3.44

FC(F)=CCl
Conditions	solvation free energy, 298 K [kcal/mol]
in CCCCCCCC(=O)OCC(COC(=O)CCCCCCC)OC(=O)CCCCCCC	-1.77
in CCCCCCCCO	-1.69
in CN1CCCC1=O	-2.26
in CN(C)C=O	-1.99
in O	0.52

Clc1cc(Cl)c(-c2cc(Cl)ccc2Cl)c(Cl)c1
Conditions	solvation free energy, 298 K [kcal/mol]
in O	-2.25

CCCI
Conditions	solvation free energy, 298 K [kcal/mol]
in C=CCCCCCCCCCCCCCC	-4.16
in ClC(Cl)(Cl)Cl	-4.97
in O	-0.56

CCOC(=O)c1ccc(N)cc1
Conditions	solvation free energy, 298 K [kcal/mol]
in CC(C)CCO	-11.1
in CCCC(C)O	-11.2
